Test results published in PubChem BioAssay (NCI).
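Step 1: Grow cells in 96-well plates. Step 2: Expose to compound for 48 hours at 5 concentrations. Step 3: Interpolate endpoints linearly; if unreached, use highest concentration. At the TGI there is no net growth.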

Columns and labels:
Experiment in all cases: DTP human tumour cell line panel, 48 h
UACC-257 melanoma = tested on: UACC-257 melanoma
DLD-1 colon = tested on: DLD-1 colon
SK-MEL-2 melanoma = tested on: SK-MEL-2 melanoma
OVCAR-4 ovarian = tested on: OVCAR-4 ovarian
SK-MEL-28 melanoma = tested on: SK-MEL-28 melanoma
HL-60(TB) leukemia = tested on: HL-60(TB) leukemia
DMS 273 small cell lung = tested on: DMS 273 small cell lung
KM20L2 colon = tested on: KM20L2 colon
HOP-62 NSCLC = tested on: HOP-62 NSCLC
HOP-18 NSCLC = tested on: HOP-18 NSCLC
SNB-78 CNS = tested on: SNB-78 CNS
XF 498 CNS = tested on: XF 498 CNS
DU-145 prostate = tested on: DU-145 prostate

| Structure (SMILES) | TGI (UACC-257 melanoma) [µM] | TGI (DLD-1 colon) [µM] | TGI (SK-MEL-2 melanoma) [µM] | TGI (OVCAR-4 ovarian) [µM] | TGI (SK-MEL-28 melanoma) [µM] | TGI (HL-60(TB) leukemia) [µM] | TGI (DMS 273 small cell lung) [µM] | TGI (KM20L2 colon) [µM] | TGI (HOP-62 NSCLC) [µM] | TGI (HOP-18 NSCLC) [µM] | TGI (SNB-78 CNS) [µM] | TGI (XF 498 CNS) [µM] | TGI (DU-145 prostate) [µM] |
| --- | --- | --- | --- | --- | --- | --- | --- | --- | --- | --- | --- | --- | --- |
| c1c(N2CCOCC2)ssc1=[N+]1CCOCC1 | > 100 | > 100 | > 100 | > 100 | > 100 | > 100 | > 100 | > 100 | > 100 | > 100 | > 100 | – | – |
| CCCO/N=[N+](\[O-])N(CC)CC | > 100 | – | > 100 | – | > 100 | > 100 | > 100 | > 100 | > 100 | – | > 100 | > 100 | – |
| O=C(O)C1=NN(c2ccc(S(=O)(=O)O)cc2)C2(C1)C(Cl)C(=O)N2c1nc2ccccc2s1 (stereo not drawn) | 37.2 | – | 32 | 35.3 | 46.3 | 34.4 | – | – | 30.5 | – | – | – | 55.9 |
| Cc1cc(S(=O)(=O)Nc2n[nH]c(Nc3ccccc3)n2)c(SCC(=O)O)cc1Cl | > 100 | – | > 100 | > 100 | > 100 | > 100 | – | – | > 100 | – | – | – | > 100 |
| Cn1nc2c(c1N)Cc1c(nn(C)c1N)-c1ccccc1-2 | > 100 | – | > 100 | > 100 | > 100 | > 100 | – | – | > 100 | – | – | – | > 100 |
| COc1ccc(C2=C(Cl)C(=O)O/C2=C\c2ccc(OC)c(Br)c2)cc1Cl | > 100 | – | 60.2 | > 100 | > 100 | > 100 | – | – | 30.8 | – | – | – | > 100 |
| CC(=O)OC1CC2(O)C(CCC3(C)C(c4ccc(=O)oc4)CCC32O)C2(C)C1=CC(O)C1OC12 (stereo not drawn) | 0.333 | 0.179 | 0.222 | 0.121 | 0.592 | 1.28 | 0.135 | 0.533 | 0.172 | 0.385 | 0.279 | 0.201 | – |
| O=c1ccn(-c2ccccn2)c(=O)n1-c1ccccn1 | > 100 | – | > 100 | > 100 | > 100 | > 100 | – | – | > 100 | – | – | – | > 100 |
| O=CN1CCN(C(=O)c2ccco2)C1=S | 33 | – | 40.6 | 46.6 | > 57.6 | 8.94 | – | – | 36.2 | – | – | – | 11.6 |
| O=C(OC12CC3CC(CC(C3)C1)C2)c1ccc(NCc2cc(O)ccc2O)cc1 | 2.98 | – | 3.57 | 1.97 | 1.62 | 0.627 | – | – | 14.8 | – | – | – | 16.7 |
| C[n+]1c(-c2ccc(NC(=O)c3ccc(C(=O)Nc4ccc(-c5cn6ccccc6[n+]5C)cc4)cc3)cc2)cn2ccccc21 | > 100 | – | > 100 | > 100 | > 100 | > 100 | – | – | > 100 | – | – | – | > 100 |
